Laboratory results taken from patent US20260272878A1, “ADAR1 INHIBITORS AND USES THEREOF” (THE WISTAR INSTITUTE OF ANATOMY AND BIOLOGY, priority 2023, published 2026).
“Also recorded” adds a separate entry of the source.

Legend:
ADAR1p110-WT = biological target: T1, ADAR1p110-WT (Homo sapiens, UniProt P55265); test: Biacore SPR binding to ADAR1p110-WT
T1 construct: made in house; host or cells: Sf9 cells (baculovirus)
T1 sequence (P55265 1-931 isoform P55265-5): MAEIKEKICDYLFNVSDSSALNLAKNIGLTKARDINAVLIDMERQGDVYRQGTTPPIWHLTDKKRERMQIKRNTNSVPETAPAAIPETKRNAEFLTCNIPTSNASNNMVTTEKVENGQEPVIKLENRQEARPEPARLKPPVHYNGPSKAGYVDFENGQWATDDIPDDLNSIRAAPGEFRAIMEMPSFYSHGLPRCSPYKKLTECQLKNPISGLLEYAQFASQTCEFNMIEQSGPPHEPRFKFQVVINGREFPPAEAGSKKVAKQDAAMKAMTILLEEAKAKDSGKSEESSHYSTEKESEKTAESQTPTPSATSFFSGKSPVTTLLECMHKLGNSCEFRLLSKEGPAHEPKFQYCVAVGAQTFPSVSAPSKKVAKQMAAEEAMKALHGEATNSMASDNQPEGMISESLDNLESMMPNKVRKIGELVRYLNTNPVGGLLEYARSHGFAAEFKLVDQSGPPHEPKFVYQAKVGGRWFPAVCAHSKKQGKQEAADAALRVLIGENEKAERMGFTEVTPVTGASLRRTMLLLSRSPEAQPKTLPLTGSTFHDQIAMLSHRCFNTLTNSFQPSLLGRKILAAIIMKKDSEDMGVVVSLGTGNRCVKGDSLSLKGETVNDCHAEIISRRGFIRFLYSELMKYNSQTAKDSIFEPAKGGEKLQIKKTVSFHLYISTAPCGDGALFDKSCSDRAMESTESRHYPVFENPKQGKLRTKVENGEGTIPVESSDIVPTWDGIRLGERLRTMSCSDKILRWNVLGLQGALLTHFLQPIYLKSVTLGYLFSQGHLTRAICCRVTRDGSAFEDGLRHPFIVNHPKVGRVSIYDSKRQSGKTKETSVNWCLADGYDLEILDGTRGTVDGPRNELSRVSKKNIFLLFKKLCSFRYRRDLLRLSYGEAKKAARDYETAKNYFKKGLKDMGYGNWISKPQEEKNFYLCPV
Description: FIGS. 5A-5D show Biacore SPR analysis for binding of ADAR1i to ADAR1p110. (FIG. 5A) SPR analysis for binding kinetics of 8 compounds to ADAR1p110-WT. ADAR1 inhibition positive (ADAR1i-13, ADAR1i-120, ADAR1i-124) and negative compounds. (FIG. 5B, FIG. 5C) […] of SPR analysis for binding of ADAR1i-13 and ADAR1i-124 to ADAR1p110-WT and ADAR1p110-E912A as well as negative control proteins, GAPDH and HuR, are shown. […] ADAR1-E912, equivalent of ADAR2 E396, is located in the catalytic center.
No complete 3-D structure of ADAR1 is currently available. […] The glutamate E912 and E396 in ADAR1 and ADAR2, respectively, plays an important proton transfer function during hydrolytic deamination reaction (42, 43).

HeLa cells [1] = test: Western blotting of treated HeLa cells (DNA damage, M phase arrest, apoptosis); format: cell-based, human; conditions: 10 μM for ADAR1i-124
Method: FIGS. 8A-8C show analysis of ADAR1i-124 effects in cancer cells. […] Viability was examined using the Apo Tox-Glo assay system. Control, 0.3% DMSO. Data: mean±SD (n=3). Significant differences identified by two-tailed Student's t-tests: *P<0.05, n.s., not significant. (FIG. 8B) Western blotting analysis of HeLa cells treated with ADAR1i-124 (10 μM).
Dose-dependent selective killing of telomerase reactivated cancer cells was determined (FIG. 9A).

HeLa cells [2] = test: Dot blot analysis for RNA:DNA hybrids (R-loops); format: cell-based, human; conditions: 10 μM for ADAR1i-124

Binding to ADAR1p110-WT (ADAR1p110-WT)	Compound	DNA damage, M phase arrest and apoptosis markers (HeLa cells [1])	Formation of R-loops (RNA:DNA hybrids) (HeLa cells [2])
direct binding	N#Cc1ccc(NC(=O)c2sc3ccccc3c2Cl)cc1 [ADAR1i-13, 3-chloro-N-(4-cyanophenyl)-1-benzothiophene-2-carboxamide]	induced DNA damage, M phase arrest, and apoptosis	increased formation of R-loops
direct binding	N#Cc1ccccc1NC(=O)c1sc2ccccc2c1Cl [ADAR1i-120]	induced DNA damage, M phase arrest, and apoptosis	increased formation of R-loops

Compound	Binding to ADAR1p110-WT (ADAR1p110-WT)	DNA damage, M phase arrest and apoptosis markers (HeLa cells [1])	Formation of R-loops (RNA:DNA hybrids) (HeLa cells [2])
N#Cc1ccc(NC(=O)c2c(Cl)c3ccccc3n2CO)cc1 [ADAR1i-124]	direct binding	induced DNA damage, M phase arrest, and apoptosis; also recorded: upregulated g-H2AX, Histone 3 phosphorylated at Serine 10, and cleaved PARP bands	increased formation of R-loops; also recorded: RNA:DNA hybrids induced
